{"source": "paper PMC9259545", "about": "“Impact of poly-arginine peptides R18D and R18 on alteplase and tenecteplase thrombolysis in vitro, and neuroprotective stability to proteolysis” (Journal of Thrombosis and Thrombolysis, 2022)", "key": {"tPA or TNK [1]": {"system": "tPA or TNK", "conditions": "cited from earlier work", "excerpt": "Given the potential future application of the R18D, R18 and NA-1 peptides as ischaemic stroke neurotherapeutics, it is important to establish if they interfere with current and future standard of care treatments, namely alteplase (tPA; recombinant tissue plasminogen activator) and tenecteplase (TNK; a modified version of tPA) thrombolysis, which are routinely administered prior to thrombectomy. Similarly, it is also important to determine whether tPA or TNK may cause proteolytic degradation of the peptides directly or through the activation of plasminogen to plasmin, thereby reducing their pot ..."}, "tPA": {"target": "T1, tPA (Homo sapiens, UniProt P00750)", "T1 construct": "purchased Boehringer Ingelheim, Germany 10 mg vial", "T1 sequence (P00750 36-562)": "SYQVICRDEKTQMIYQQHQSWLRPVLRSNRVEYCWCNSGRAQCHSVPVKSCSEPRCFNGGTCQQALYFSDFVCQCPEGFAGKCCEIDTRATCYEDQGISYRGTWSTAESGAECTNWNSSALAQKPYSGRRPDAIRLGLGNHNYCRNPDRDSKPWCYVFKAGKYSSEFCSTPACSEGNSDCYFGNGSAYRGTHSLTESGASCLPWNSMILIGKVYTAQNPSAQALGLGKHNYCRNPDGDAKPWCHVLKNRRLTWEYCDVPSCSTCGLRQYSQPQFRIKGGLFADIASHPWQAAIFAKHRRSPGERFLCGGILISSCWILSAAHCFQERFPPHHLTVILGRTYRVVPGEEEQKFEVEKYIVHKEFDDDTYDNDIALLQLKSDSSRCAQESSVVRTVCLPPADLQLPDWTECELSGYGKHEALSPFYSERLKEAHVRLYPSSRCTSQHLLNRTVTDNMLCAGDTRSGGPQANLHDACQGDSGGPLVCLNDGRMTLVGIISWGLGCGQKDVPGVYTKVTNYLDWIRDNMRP", "assay": "Halo clot thrombolysis assay, tPA thrombolysis of whole blood clots", "type": "biochemical", "conditions": "tPA 5 nM, 27.5% human plasma; for Increase in tPA lag time / Increase in tPA thrombolysis maximal activity: concurrent study, 37 °C", "method": "(§1) We utilised a high throughput 96-well plate thrombolysis assay (“halo clot assay”) based on the procedure developed by Bonnard et al.. To reduce assay components the halo thrombus formation procedure was modified by replacing the original thrombotic mixture consisting of recombinant tissue factor and synthetic phospholipids reconstituted in 30 mM calcium, with thrombin, and reducing the pro-thrombotic volume (i.e., thrombin) from 5 to 3 µL and blood volume from 25 to 12 µL. Another modification to simplify clot formation consisted of adding the thrombin (3 µL; 500 nM in saline) to one side of the well and 12 µL of blood to the opposite side of well, before using a heat stretched Pasteur pipette with sealed end to mix the two liquids together using 4 to 5 circular motions around the edge of the well (halo clot). The original methodology involved adding the 5 μL of the clotting mixture to the edge of the well, and then using a micropipette to slowly release the 25 μL of blood to the edge of the well while at the same time maintaining a circular motion. Plates were incubated in a humidified 37 °C incubator for 1 h before use in the thrombolysis assay.\n(§2) The thrombolysis assay involved adding 30 µL of Tris buffer (50 mM Tris–HCl, 100 mM NaCl, pH 7.4) with or without peptide followed by 55 µL Tris buffer containing tPA or TNK (5 nM final concentration) and 50% human plasma (final plasma concentration during thrombolysis 27.5%). The final concentration of peptide during thrombolysis ranged from 0.25 to 16 µM (note: an intravenous dose of R18D at 350 nmol/kg, which is likely to be neuroprotective achieves a Cmax of 0.7–0.9 µM in healthy male and female rats; unpublished observation). […] Following the addition of tPA or TNK into the wells, clot lysis was monitored over a 1-h period at 37 °C using a plate reader (Cytation5, BioTek, USA) by measuring absorbance at 510 nm every 1 min immediately after orbital shaking (205 rpm for 5 s). Controls consisted of wells with no thrombin (100% clot lysis; L100%) and wells with no tPA or TNK (0% clot lysis; L0%). At the 1-h time point, the percentage of thrombolysis (%T) in tPA or TNK treated samples (LTX) was calculated by transforming absorbance values based on the formula: % T = (LTX) − (L0%)/(L100%) − (L0%) × 100. In addition, during the 1-h period of clot lysis lag time and maximal activity (also known as maximum velocity or Vmax) of the thrombolysis reaction were calculated. The lag time is defined as the time interval between the first absorbance reading (time = 0) and the line of maximum slope of the thrombolysis reaction. The maximal activity is calculated from the maximum slope over the time course of the assay and reflects the capacity of an enzyme to catalyse a reaction (i.e., thrombolysis), with higher values representing higher catalytic activity (i.e., tPA/TNK induced plasmin thrombolysis).\n(§3) For each thrombolysis assay, replicates for control wells (L0% and L100%) and tPA or TNK only treated wells consisted of n = 4–8. Replicates for tPA or TNK and peptide treated wells consisted of n = 4. For data analysis and graphical representations of the results, data from three independent thrombolytic assays were pooled. Studies consisted of R18D, R18 and NA-1 examined at the 0.5, 1, 2, 4, 8 or 16 µM concentrations performed concurrently on the same 96-well plate, in respective order. In addition, since R18D is known to be resistant to plasmin degradation and appeared to have the most impact on tPA or TNK thrombolysis, a separate set of three independent assays were performed for this peptide alone at concentrations of 0.25, 0.5, 1, 2, 4, 8 or 16 µM. Furthermore, the second dose study with R18D provided the opportunity to include a lower concentration (0.25 µM) of the peptide and to provide comparative data when only one peptide was examined in the thrombolysis assay per 96-well plate as opposed to examining the three peptides concurrently on the same plate. […]"}, "[2]": {"system": "Rat primary cortical cultures", "parameters": "method as in PMID 25669902", "conditions": "cited from earlier work", "procedure": "To assess peptide proteolytic stability, R18 and R18D neuroprotective efficacy after incubation with tPA, TNK or trypsin was examined in the glutamic acid excitotoxicity model. Peptides were added to culture wells (96-well plate format) 5 min prior to glutamic acid exposure by removing media and adding 50 µL of media containing R18 or R18D at a 2 µM concentration. To induce excitotoxicity, 50 µL of Minimal Essential Media (Life Technologies)/2% B27 (MEM/B27) containing glutamic acid (200 µM: final concentration 100 µM; L-glutamic acid. L-glutamic acid was prepared as a 10,000 µM stock in water ..."}, "[3]": {"system": "patients undergoing thrombectomy", "conditions": "ESCAPE-NA-1 trial, subgroup analysis; cited from earlier work", "excerpt": "The cationic arginine-rich peptides (CARPs) poly-arginine-18 (R18; 18-mer of L-enantiomer arginine; net charge + 18), its D-enantiomer (R18D) and NA-1 (also known as nerinetide or TAT-NR2B9c; net charge + 7) represent emerging neuroprotective therapies for the acute treatment of ischaemic stroke, especially prior to thrombolysis and endovascular thrombectomy."}, "TNK": {"target": "T2, TNK (Homo sapiens, UniProt P00750, H332A/K331A/N152Q/R333A/R334A/T138N)", "T2 construct": "purchased Boehringer Ingelheim 50 mg vial", "T2 sequence (P00750 36-562 T138N/N152Q/K331A/H332A/R333A/R334A)": "as the sequence (P00750 36-562) above, with T103N, N117Q, K296A, H297A, R298A, R299A counted along it", "assay": "Halo clot thrombolysis assay, TNK thrombolysis of whole blood clots", "type": "biochemical", "conditions": "concurrent study, 0.5-16 µM peptide, TNK 5 nM, 27.5% human plasma", "method": "as §1, §2, §3"}, "tPA or TNK [4]": {"system": "tPA or TNK", "type": "biochemical, human", "method": "as §1, §2\nFor each thrombolysis assay, replicates for control wells (L0% and L100%) and tPA or TNK only treated wells consisted of n = 4–8. Replicates for tPA or TNK and peptide treated wells consisted of n = 4. For data analysis and graphical representations of the results, data from three independent thrombolytic assays were pooled. Studies consisted of R18D, R18 and NA-1 examined at the 0.5, 1, 2, 4, 8 or 16 µM concentrations performed concurrently on the same 96-well plate, in respective order. […]"}}, "note": "No end group written: not given here.", "data": [{"sequence": "YGRKKRRQRRRKLSSIESDV [NA-1, reference compound]", "values": [{"measurement": "Interference with the thrombolytic activity of tPA or TNK", "setting": "tPA or TNK [1]", "value": "does not interfere"}, {"measurement": "Increase in tPA lag time", "setting": "tPA; peptide 1 µM", "value": 5.4, "unit": "min"}, {"measurement": "Increase in tPA lag time", "setting": "tPA; peptide 2 µM", "value": 7.16, "unit": "min"}, {"measurement": "Increase in tPA thrombolysis maximal activity", "setting": "tPA; peptide 2 µM", "value": 40.68, "unit": "%"}, {"measurement": "Increase in tPA thrombolysis maximal activity", "setting": "tPA; peptide 4 µM", "value": 45.1, "unit": "%"}, {"measurement": "Increase in tPA thrombolysis maximal activity", "setting": "tPA; peptide 8 µM", "value": 58.65, "unit": "%"}, {"measurement": "Increase in tPA thrombolysis maximal activity", "setting": "tPA; peptide 16 µM", "value": 45.65, "unit": "%"}, {"measurement": "Effect on percentage tPA thrombolysis at 1 h vs tPA control", "setting": "tPA; three peptides concurrently on the same plate, 0.5-16 µM peptide, Tris pH 7.4, 37 °C, 1 h, absorbance 510 nm, three independent assays pooled, n = 4, Dunnett's test", "value": "did not significantly inhibit thrombolysis"}, {"measurement": "Neuroprotection in the glutamic acid excitotoxicity model", "setting": "[2]", "value": "no to little neuroprotection"}, {"measurement": "Outcome of patients who received NA-1 but not alteplase compared with patients who received both NA-1 and alteplase", "setting": "[3]", "value": "significantly better functional outcomes, reduced mortality and reduced infarct volume"}, {"measurement": "Effect on TNK lag time vs TNK control", "setting": "TNK", "value": "did not significantly increase TNK lag time"}, {"measurement": "Effect on TNK thrombolysis maximal activity vs TNK control", "setting": "TNK", "value": "did not significantly impact TNK thrombolysis maximal activity"}, {"measurement": "Effect on percentage TNK thrombolysis at 1 h vs TNK control", "setting": "TNK; 37 °C, 1 h", "value": "did not significantly inhibit TNK thrombolysis"}, {"measurement": "Increase in lag time (time to the commencement of thrombolysis)", "setting": "tPA or TNK [4]; range over peptide concentrations 0.25-16 µM and both thrombolytics, 1-h assay", "value": "0 to 7.16", "unit": "min"}, {"measurement": "Effect on maximal activity of the thrombolysis reaction", "setting": "tPA or TNK [4]; summary in abstract", "value": "appeared to increase the maximal activity"}]}]}
